From PubChem BioAssay (NCI)
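96-well plates; 48 h exposure; 5 concentrations. Endpoints by linear interpolation between flanking doses. Not reached: highest tested concentration assigned. The concentration for 50% growth inhibition is given as GI50. Definition used: TGI = concentration required for complete inhibition of growth.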

Tests used:
Assay in all cases: NCI tumour cell line growth inhibition, 48 h; in the data active = GI50 below about 0.43 µM; inactive = the rest
NCI-H23 lung = test system: NCI-H23 lung
NCI-H460 lung = test system: NCI-H460 lung
NCI-H522 lung = test system: NCI-H522 lung
NCI/ADR-RES ovarian = test system: NCI/ADR-RES ovarian
OVCAR-3 ovarian = test system: OVCAR-3 ovarian
OVCAR-4 ovarian = test system: OVCAR-4 ovarian
OVCAR-5 ovarian = test system: OVCAR-5 ovarian
OVCAR-8 ovarian = test system: OVCAR-8 ovarian
PC-3 prostate = test system: PC-3 prostate
RPMI-8226 leukemia = test system: RPMI-8226 leukemia
RXF 393 renal = test system: RXF 393 renal
SF-268 CNS = test system: SF-268 CNS
SF-295 CNS = test system: SF-295 CNS
SF-539 CNS = test system: SF-539 CNS
SK-MEL-2 melanoma = test system: SK-MEL-2 melanoma
SK-MEL-28 melanoma = test system: SK-MEL-28 melanoma
SK-MEL-5 melanoma = test system: SK-MEL-5 melanoma
SK-OV-3 ovarian = test system: SK-OV-3 ovarian
SN12C renal = test system: SN12C renal
SNB-19 CNS = test system: SNB-19 CNS
SNB-75 CNS = test system: SNB-75 CNS
SR leukemia = test system: SR leukemia
SW-620 colon = test system: SW-620 colon
T-47D breast = test system: T-47D breast
TK-10 renal = test system: TK-10 renal
U251 CNS = test system: U251 CNS
UACC-257 melanoma = test system: UACC-257 melanoma
UACC-62 melanoma = test system: UACC-62 melanoma
UO-31 renal = test system: UO-31 renal

O=C1NC(=NCCc2cccc(F)c2)S/C1=C\c1ccc2ncccc2c1
24.9 µM: TGI (NCI-H522 lung)
inactive: GI50 (NCI-H460 lung) 1.39 µM | GI50 (NCI-H522 lung) 3.59 µM | GI50 (NCI/ADR-RES ovarian) 10.8 µM | GI50 (OVCAR-3 ovarian) 1.76 µM | GI50 (OVCAR-4 ovarian) > 25 µM | GI50 (OVCAR-5 ovarian) > 25 µM | GI50 (OVCAR-8 ovarian) 12.8 µM | GI50 (PC-3 prostate) > 25 µM | GI50 (RPMI-8226 leukemia) 1.73 µM | GI50 (RXF 393 renal) 4.4 µM | GI50 (SF-268 CNS) 10.7 µM | GI50 (SF-295 CNS) 2.56 µM | GI50 (SF-539 CNS) 1.59 µM | GI50 (SK-MEL-2 melanoma) 15.8 µM | GI50 (SK-MEL-28 melanoma) > 21.4 µM | GI50 (SK-MEL-5 melanoma) 3.41 µM | GI50 (SK-OV-3 ovarian) 4.38 µM | GI50 (SN12C renal) > 16 µM | GI50 (SNB-19 CNS) 14.1 µM | GI50 (SNB-75 CNS) 3.79 µM | GI50 (SW-620 colon) 0.819 µM | GI50 (T-47D breast) 6.89 µM | GI50 (TK-10 renal) > 12.4 µM | GI50 (U251 CNS) 1.46 µM | GI50 (UACC-257 melanoma) 9.61 µM | GI50 (UACC-62 melanoma) 5.41 µM | GI50 (UO-31 renal) 16.7 µM
> 21.9 µM: TGI (SNB-75 CNS)
> 25 µM: TGI (NCI-H23 lung) | TGI (NCI-H460 lung) | TGI (NCI/ADR-RES ovarian) | TGI (OVCAR-3 ovarian) | TGI (OVCAR-4 ovarian) | TGI (OVCAR-5 ovarian) | TGI (OVCAR-8 ovarian) | TGI (PC-3 prostate) | TGI (RPMI-8226 leukemia) | TGI (RXF 393 renal) | TGI (SF-268 CNS) | TGI (SF-295 CNS) | TGI (SF-539 CNS) | TGI (SK-MEL-2 melanoma) | TGI (SK-MEL-28 melanoma) | TGI (SK-MEL-5 melanoma) | TGI (SK-OV-3 ovarian) | TGI (SN12C renal) | TGI (SNB-19 CNS) | TGI (SR leukemia) | TGI (SW-620 colon) | TGI (T-47D breast) | TGI (TK-10 renal) | TGI (U251 CNS) | TGI (UACC-257 melanoma) | TGI (UACC-62 melanoma) | TGI (UO-31 renal)
active: GI50 (SR leukemia) 0.121 µM
